39 compounds from ChEMBL document CHEMBL1201862, “PubChem BioAssay data set” (2004) can be followed below.

A word on the AC50: it is the midpoint of the concentration-response curve, whichever way the signal moves. One may read the EC50 as the concentration at which the effect is half-maximal. As a reminder, the CC50 is the concentration giving 50% cytotoxicity.

Calls of active or inactive are those of the source.

One experiment has as its target T1, Cytochrome P450 1A2 (Homo sapiens, UniProt P05177).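 Also: PubChem cytochrome P450 panel assay, CYP1A2 panel member.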
T1 sequence (P05177 whole entry): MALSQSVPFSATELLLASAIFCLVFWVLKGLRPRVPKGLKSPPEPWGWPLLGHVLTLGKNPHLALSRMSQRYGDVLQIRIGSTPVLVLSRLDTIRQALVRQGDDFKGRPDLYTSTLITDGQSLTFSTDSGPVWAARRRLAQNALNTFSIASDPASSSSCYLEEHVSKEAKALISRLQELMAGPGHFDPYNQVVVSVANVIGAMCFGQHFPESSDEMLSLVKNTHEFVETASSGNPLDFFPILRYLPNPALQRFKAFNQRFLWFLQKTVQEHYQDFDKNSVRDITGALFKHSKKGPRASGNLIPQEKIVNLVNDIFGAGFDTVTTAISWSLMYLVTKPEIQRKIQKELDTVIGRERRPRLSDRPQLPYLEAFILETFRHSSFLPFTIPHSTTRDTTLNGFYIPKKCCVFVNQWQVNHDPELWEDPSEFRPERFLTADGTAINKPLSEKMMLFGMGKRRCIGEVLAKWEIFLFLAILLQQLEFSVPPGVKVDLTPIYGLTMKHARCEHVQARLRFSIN

Experiment [1] in a line: inhibitors of SNCA 5'UTR-driven reporter translation, confirmation, H4 neuroglioma cells, luminescence (AID 1988). Format: functional, cell-based.
A short description of experiment [2]: Luminescence Cell-Based Dose Response HTS to Identify Inhibitors of 5'UTR Stem-Loop Driven Prion Protein mRNA Translation in H4 Neuroglioblastoma Cells. [Related pubchem assays: 1827 (Project Summary), 1813 (Primary HTS)]. Format: functional.
The nature of experiment [3]: inhibitors of firefly luciferase expression or activity, dose response, H4 neuroglioma cells, luminescence (AID 1990). Format: functional, cell-based.
The test system of experiment [4] is Streptococcus sp. 'group A'. In words: growth inhibition of control SK(-) GAS strain, dose response, counter-screen for streptokinase expression inhibitor project, luminescence, kanamycin, BacTiterGlo, confirmation (AID 1900). Format: functional, organism-based. (Counterscreens check selectivity or assay interference.)
Experiment [5] can be described thus: Luminescence Cell-Based Dose Retest to Confirm Inhibitors of Cancer Stem Cells. [Related pubchem assays (depositor defined):AID2717, AID2721]. Format: functional. Conditions: Homo sapiens.
The next experiment concerns Streptococcus. Briefly: Group A Streptococcus viability loss, dose response, counter-screen for streptokinase expression inhibitor project, luminescence, BacTiterGlo (AID 1915).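 Also: potency for reduction of bacterial viability or growth.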 Format: functional, organism-based.
For another experiment, the target named is T2, Streptokinase A (Streptococcus pyogenes serotype M1, UniProt P10520).
T2 sequence (P10520 whole entry): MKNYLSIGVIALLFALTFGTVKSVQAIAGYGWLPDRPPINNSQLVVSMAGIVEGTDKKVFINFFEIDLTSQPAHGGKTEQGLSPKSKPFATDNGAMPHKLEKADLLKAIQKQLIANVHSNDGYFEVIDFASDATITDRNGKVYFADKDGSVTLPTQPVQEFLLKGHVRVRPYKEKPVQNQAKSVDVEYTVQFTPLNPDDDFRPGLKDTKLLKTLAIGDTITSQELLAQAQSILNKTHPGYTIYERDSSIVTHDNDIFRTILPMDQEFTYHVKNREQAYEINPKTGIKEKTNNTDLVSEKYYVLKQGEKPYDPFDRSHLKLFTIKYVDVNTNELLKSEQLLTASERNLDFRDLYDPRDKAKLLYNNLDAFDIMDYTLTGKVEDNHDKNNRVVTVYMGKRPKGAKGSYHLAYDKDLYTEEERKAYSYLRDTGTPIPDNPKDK
In words: S. pyogenes streptokinase expression inhibitors, potency, dose response, plasminogen activation absorbance, OD405 (AID 1914).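 Also: secreted streptokinase activity via plasminogen activation per viability signal from cell pellet.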 Format: functional, Streptococcus pyogenes M1 GAS.

The target in another experiment is Cytochrome P450 2C19 (Homo sapiens, UniProt P33261). Briefly: Cytochrome panel assay with activity outcomes. Panel member name: p450-cyp2c19 Compounds with AC50 equal or less than 10 uM are considered active. Format: functional. Conditions: read-out: AC50.
A further experiment deals with Cytochrome P450 2C9 (Homo sapiens, UniProt P11712).
The test system of another experiment is H4. Briefly: Luminescence Cell-Based Dose Response HTS to Identify Activators of 5'UTR Stem-Loop Driven Prion Protein mRNA Translation in H4 Neuroglioblastoma Cells. [Related pubchem assays: 1829 (Project Summary), 1814 (Primary HTS)]. Format: functional. As to conditions: Homo sapiens.
Experiment [6] can be described thus: HEp-2 cell cytotoxicity, dose response, cytotoxicity control for RSV inhibitor project, HTS (AID 2410). As to conditions: human respiratory syncytial virus. Format: functional.
Experiment [7] can be described thus: Luminescence Cell-Based Dose Response HTS to Identify Activators of Luciferase Translation or Activity in H4 […] Cells. [Related pubchem assays: 1829 (Project Summary), 1814 (Primary HTS)]. Format: functional.
Experiment [8] in a line: C. albicans growth with fluconazole, confirmation, fluorescence, retest (AID 2467). Format: functional, cell-based.
Experiment [9] is described as follows: NIH-3T3 fibroblast cytotoxicity, dose response, cytotoxicity control, cell-based, fluorescence, Alamar Blue, secondary assay (AID 2327).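 Also: NIH-3T3 mouse fibroblasts cultured with fluconazole at 8 µg/mL.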 Format: functional. In general terms: The colour change of resazurin is a common sign of viable cells or microbes.

Sequence of Cytochrome P450 2C19 (P33261 whole entry): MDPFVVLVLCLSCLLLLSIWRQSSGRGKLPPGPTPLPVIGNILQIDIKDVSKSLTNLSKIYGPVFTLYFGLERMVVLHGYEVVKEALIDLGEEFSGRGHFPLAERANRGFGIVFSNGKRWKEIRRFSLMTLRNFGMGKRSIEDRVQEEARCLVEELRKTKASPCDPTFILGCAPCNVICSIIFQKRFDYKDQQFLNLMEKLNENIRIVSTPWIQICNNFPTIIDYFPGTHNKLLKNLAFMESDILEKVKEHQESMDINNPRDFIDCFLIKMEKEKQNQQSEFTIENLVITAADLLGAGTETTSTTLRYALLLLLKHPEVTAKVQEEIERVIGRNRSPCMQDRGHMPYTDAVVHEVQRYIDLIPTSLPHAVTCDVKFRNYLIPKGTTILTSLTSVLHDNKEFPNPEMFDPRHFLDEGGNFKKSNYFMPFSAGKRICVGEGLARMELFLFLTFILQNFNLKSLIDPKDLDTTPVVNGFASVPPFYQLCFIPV
Sequence of Cytochrome P450 2C9 (P11712 whole entry): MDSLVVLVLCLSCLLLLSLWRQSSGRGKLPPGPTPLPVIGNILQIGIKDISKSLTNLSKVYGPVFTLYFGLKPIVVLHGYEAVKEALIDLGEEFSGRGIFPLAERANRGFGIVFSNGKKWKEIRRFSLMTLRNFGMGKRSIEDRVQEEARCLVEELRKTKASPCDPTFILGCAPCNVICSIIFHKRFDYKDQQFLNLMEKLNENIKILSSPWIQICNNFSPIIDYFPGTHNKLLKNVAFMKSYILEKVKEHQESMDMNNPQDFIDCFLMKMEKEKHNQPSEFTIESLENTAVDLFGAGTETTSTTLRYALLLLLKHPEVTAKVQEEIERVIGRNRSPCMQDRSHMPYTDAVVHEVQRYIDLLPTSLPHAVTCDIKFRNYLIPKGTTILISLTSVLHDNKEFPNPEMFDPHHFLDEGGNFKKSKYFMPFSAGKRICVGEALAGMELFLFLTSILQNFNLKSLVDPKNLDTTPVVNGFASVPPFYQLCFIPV

With `Oc1ccc(CNCc2ccccc2)c2cccnc12`, at Cytochrome P450 1A2, the AC50 was 5.01 µM (inconclusive).

For the compound `CCOc1ccc(-c2nc(S(=O)(=O)c3ccccc3)c(NCc3cccnc3)o2)cc1`, the EC50 in experiment [1], in experiment [2] and in [3] was > 120 µM (not active) in each case.

Regarding `CCN(CC)S(=O)(=O)c1cccc(-c2nnc(S)n2/N=C/c2ccc(OC)cc2)c1`, the results for the EC50 in experiment [1], in [2] and in experiment [3] were 34.8 µM (active), > 120 µM (not active) and 23.8 µM (active), respectively.

As for `c1cn2c(NC3CCCCC3)c(-c3ccc(SC4CCCCC4)cc3)nc2cn1`, the EC50 in [4] was 1.01 µM (active); in the experiment with Streptococcus, 4.27 µM (active); on Streptokinase A, > 150 µM (not active). The AC50 in [5] is 3.13 µM (active).

Turning to `Cc1c(NC(=O)/C(C#N)=C/c2ccc(-c3ccccc3Cl)o2)c(=O)n(-c2ccccc2)n1C`, the EC50 is > 120 µM (not active) in experiment [1], > 120 µM (not active) in [2] and 13.4 µM (active) in experiment [3].

With `CCCN(CCC)[C@@H]1CCc2c(OC)cccc2[C@@H]1C`, the AC50 on Cytochrome P450 1A2 is 31.6 µM (inconclusive).

Consider `CCOC(=O)c1ncn2c1[C@H]1CCCN1C(=O)c1cc(OC)ccc1-2`, for which, on Cytochrome P450 1A2, the half-maximal activity concentration (AC50) was 39.8 µM (inconclusive).

With `CN1CCN(CCc2ccc(Cl)c(Cl)c2)CC1`, the AC50 on Cytochrome P450 1A2 is 25.1 µM (inconclusive).

For the compound `Cc1ccc(-n2c3c(c(=O)[nH]c2=O)C(C(F)(F)F)(C(F)(F)F)NC(=O)N3)cc1`, the AC50 at Cytochrome P450 2C19 is 39.8 µM (inconclusive); at Cytochrome P450 2C9, 20 µM (inconclusive).

Regarding `CC(C)c1ccc(/C=N/NC(=O)c2cccc(Cl)c2)cc1`, in [5], the AC50 is 2.88 µM (active). In the experiment with H4, the EC50 was 43.1 µM (active).

Consider `Cn1c(-c2ccc(Br)cc2)cnc1NCc1cccnc1`, for which the AC50 at Cytochrome P450 2C19 is 17.8 µM (inconclusive); at Cytochrome P450 2C9, 15.8 µM (inconclusive).

With `COc1cccc(Nc2ncc3nc(-c4cc(F)cc(F)c4)c(=O)n(C4CC4)c3n2)c1`, at Cytochrome P450 1A2, the AC50 was 6.31 µM (inconclusive).

Take `COc1ccc(/C=C2\SC(=S)N(CCC(=O)NC3C=CS(=O)(=O)C3)C2=O)cc1` (stereo not given): the concentration for a half-maximal effect (EC50) is 13.4 µM (active) in [1] and 15.7 µM (active) in experiment [2].

With `Cn1c(-c2ccc(F)cc2)cnc1NCc1cccc(F)c1`, the AC50 on Cytochrome P450 2C9 was 39.8 µM (inconclusive).

`c1ccc2c3c([nH]c2c1)[C@@H]1[C@H]2CC[C@H]([C@H]4CCCN[C@H]42)N1CC3`: the AC50 at Cytochrome P450 1A2 was 15.8 µM (inconclusive).

Turning to `CC(NC(=O)Cn1c(=O)[nH]c2ccsc2c1=O)C12CC3CC(CC(C3)C1)C2` (stereo not given), the EC50 (in [4]; in the experiment on Streptococcus; at Streptokinase A) was > 150 µM (not active) throughout.

With `CCOc1ccc(C(C)=O)cc1N1C(=O)C2C(C1=O)C1C=CC2C12CC2` (stereo not given), the AC50 on Cytochrome P450 2C19 is 17.8 µM (inconclusive); on Cytochrome P450 2C9, 14.1 µM (inconclusive).

As to `COc1ccc(-n2c(=O)c(-c3ccccc3)nc3cnc(N4CCOCC4)nc32)cc1`, the AC50 at Cytochrome P450 1A2 is 15.8 µM (inconclusive).

Take `O=C(CNC(=O)c1ccco1)NCc1nc2ccccc2[nH]1`: the EC50 (in [4]; in the experiment with Streptococcus; on Streptokinase A) was > 150 µM (not active) throughout.

Take `COC(=O)[C@@H]1CC[C@H](C)[C@@H](c2ccc(C)cc2)N1C(=O)c1ccc(/C=N\OCC[C@@H]2C=C[C@H](OC(C)=O)[C@H](COC(C)=O)O2)cc1`: the concentration at half-maximal activity (AC50) on Cytochrome P450 2C9 was 3.98 µM (inconclusive).

Turning to `CC1(C)CC(=O)C(CCCN2C(=O)c3ccccc3C2=O)C(=O)C1`, the figures for the AC50 at Cytochrome P450 1A2 and on Cytochrome P450 2C19 were 28.2 µM (inconclusive) and 39.8 µM (inconclusive), respectively.

With `NS(=O)(=O)c1ccc(NC2(C(=O)O)CCCC2)cc1`, on Cytochrome P450 1A2, the AC50 was 0.794 µM (inconclusive).

As to `CC(C)(C)OC(=O)COc1cc(OCC(=O)OC(C)(C)C)c2c(=O)cc(-c3ccccc3)oc2c1`, the CC50 in experiment [6] is 19.6 µM (active). Besides, at Cytochrome P450 2C9, the AC50 is 2 µM (inconclusive).

For the compound `CCC(CC)C(=O)Nc1cccc(/C(C)=N\NC(=O)c2ccc(C)s2)c1`, the AC50 is 3.16 µM (inconclusive) on Cytochrome P450 1A2 and 0.355 µM (inconclusive) on Cytochrome P450 2C9.

As to `O=C(Nc1cccnc1)C1COc2ccccc2O1` (stereo not given), the AC50 at Cytochrome P450 2C9 is 5.01 µM (inconclusive).

As to `O=C(/C=C/c1ccccc1)NC(=S)NNC(=O)Cc1cccs1`, the EC50 in [4] was 1.39 µM (active); in the experiment on Streptococcus, 30.3 µM (active); at Streptokinase A it was > 150 µM (not active).

On to `O=c1c(-c2ccc(Cl)cc2)nc2cnc(Nc3ccccc3)nc2n1C[C@H]1CCCO1`, for which the AC50 on Cytochrome P450 1A2 is 12.6 µM (inconclusive).

Take `Cc1ccc(S(=O)(=O)NCC(=O)OCC(=O)N2N=C(c3ccc(Cl)cc3)CC2c2ccco2)cc1C` (stereo not given): the results for the EC50 (in experiment [4]; in the experiment with Streptococcus; at Streptokinase A) were 18.6 µM (active), 61 µM (active) and 22.4 µM (active), respectively.

Regarding `O=C(COc1cccc2cccnc12)Nc1ccccc1`, the EC50 is 15.4 µM (active) in [7] and 15 µM (active) in the experiment on H4.

With `COc1ccc2[nH]cc(CCNc3ncnc4ccc(-c5ccoc5)cc34)c2c1`, on Cytochrome P450 2C9, the AC50 is 0.398 µM (inconclusive).

`Cc1ccccc1-c1cc(C(=O)Nc2nc3c(s2)CCCC3)c2ccccc2n1`: the AC50 at Cytochrome P450 1A2 is 3.55 µM (inconclusive).

Take `CC1CCC(C(=O)c2c(O)oc3ccccc3c2=O)CC1` (stereo not given): the EC50 in experiment [4] was 10.4 µM (active); in [8] it was 2.01 µM (active); with Streptococcus, 20.3 µM (active); on Streptokinase A, > 150 µM (not active); in experiment [9], > 150 µM (inactive).

For `CC(=O)Nc1nnc(S(=O)(=O)N2CCN(c3ccc(Cl)cc3[N+](=O)[O-])CC2)s1`, the values for the EC50 (in [4]; with Streptococcus; at Streptokinase A) were 29.1 µM (active), > 150 µM (not active) and > 150 µM (not active), respectively.

For `O=C(N/N=C/c1cc([N+](=O)[O-])ccc1O)C(O)(c1ccccc1)c1ccccc1`, the EC50 in experiment [4] is 3.11 µM (active); in [8], 2.29 µM (active); with Streptococcus, 9.11 µM (active); at Streptokinase A, > 150 µM (not active); in [9], > 150 µM (inactive).

`COC(=O)[C@@]1(Cc2ccc(OC)cc2)[C@H]2c3cc(C(=O)N(C)C)n(CCN4CNCC4=O)c3C[C@H]2CN1C(=O)c1ccccc1`: the AC50 at Cytochrome P450 1A2 is 20 µM (inconclusive); on Cytochrome P450 2C19 it was 15.8 µM (inconclusive).

Consider `CCOc1nc(NCCc2ccc(OC)c(OC)c2)nc(NC(C)(C)CO)n1`, for which the half-maximal activity concentration (AC50) on Cytochrome P450 2C9 was 31.6 µM (inconclusive).

As for `CC(=O)OCc1c(C(F)(F)F)nn(C)c1Sc1ccccc1`, the AC50 at Cytochrome P450 2C9 is 28.2 µM (inconclusive).

Regarding `CC(/C=C/c1ccc(N(C)C)cc1)=N/NC1=NC(=O)CC(C(=O)Nc2ccc(Cl)cc2)S1` (stereo not given), the EC50 was 2.94 µM (active) in experiment [4], 8.65 µM (active) in the experiment with Streptococcus and > 150 µM (not active) at Streptokinase A.

Regarding `c1ccc(Nc2nc(N3CCCCC3)nc(N3CCCCC3)n2)cc1`, the EC50 in experiment [4] is 11.7 µM (active); in the experiment on Streptococcus it was 33.9 µM (active); at Streptokinase A, > 150 µM (not active).
